Article PMC5025651, “Reprofiled anthelmintics abate hypervirulent stationary-phase Clostridium difficile” (Scientific Reports, 2016)
Converted amounts (≈) assume the structure as drawn. Counter-ions that a name gives are not always drawn. Like-named read-outs stand apart in the source and are kept apart here.

Key:
16 C. difficile isolates = assay: MIC by broth microdilution, summary over 16 C. difficile isolates; type: cell-based, Clostridium difficile; conditions: for MIC50 / MIC90: Clostridioides difficile; for MIC Range: range over 16 C. difficile isolates
[1] = test system: C. difficile strain 4118 (CD4118, ATCC BAA-1870, ribotype 027); assay: MIC by broth microdilution; type: cell-based, Clostridium difficile; conditions: for MIC: Clostridioides difficile
[2] = test system: C. difficile isolate 20110869 (ribotype 001_072); assay: MIC by broth microdilution; type: cell-based, Clostridium difficile; conditions: Clostridioides difficile
[3] = test system: C. difficile isolate 20110742 (ribotype 002); assay: MIC by broth microdilution; type: cell-based, Clostridium difficile; conditions: Clostridioides difficile
[4] = test system: C. difficile isolate 20100584 (ribotype 014); assay: MIC by broth microdilution; type: cell-based, Clostridium difficile; conditions: Clostridioides difficile
[5] = test system: C. difficile isolate 20110960 (ribotype 017); assay: MIC by broth microdilution; type: cell-based, Clostridium difficile; conditions: Clostridioides difficile
[6] = test system: C. difficile isolate 20110740 (ribotype 018); assay: MIC by broth microdilution; type: cell-based, Clostridium difficile; conditions: Clostridioides difficile
[7] = test system: C. difficile isolate 20120016 (ribotype 019); assay: MIC by broth microdilution; type: cell-based, Clostridium difficile; conditions: Clostridioides difficile
[8] = test system: C. difficile isolate 20111163 (ribotype 024); assay: MIC by broth microdilution; type: cell-based, Clostridium difficile; conditions: Clostridioides difficile
[9] = test system: C. difficile isolate 20121412 (ribotype 047); assay: MIC by broth microdilution; type: cell-based, Clostridium difficile; conditions: Clostridioides difficile
[10] = test system: C. difficile isolate 20100422 (ribotype 054); assay: MIC by broth microdilution; type: cell-based, Clostridium difficile; conditions: Clostridioides difficile
[11] = test system: C. difficile isolate 20110986 (ribotype 078); assay: MIC by broth microdilution; type: cell-based, Clostridium difficile; conditions: Clostridioides difficile
[12] = test system: C. difficile isolate 20110973 (ribotype 106); assay: MIC by broth microdilution; type: cell-based, Clostridium difficile; conditions: Clostridioides difficile
[13] = test system: C. difficile isolate 20121190 (ribotype 126); assay: MIC by broth microdilution; type: cell-based, Clostridium difficile; conditions: Clostridioides difficile
[14] = test system: C. difficile isolate 20110961 (ribotype A12); assay: MIC by broth microdilution; type: cell-based, Clostridium difficile; conditions: Clostridioides difficile
C. difficile strain 4118 [15] = assay: Minimum bactericidal concentration (MBC), logarithmic- and stationary-phase cells; type: cell-based, Clostridium difficile
Description: The procedure for MBC determination was adapted from that of Alam et al.[44]. Briefly, a single overnight colony of C. difficile strain 4118 (streaked onto blood agar plate) was suspended in BHIS and grown to OD600 ~ 0.4–0.5 (logarithmic phase) or for 24 h (stationary phase). In 96-well microtiter plates, cultures were added to two-fold serial dilutions of test compounds in BHIS and incubated for 20–24 h at 37 °C in an anaerobic chamber. […] MBC measurements were performed in duplicate.

C. difficile strain 4118 [16] = assay: Time-kill kinetics against stationary-phase cultures; type: cell-based, Clostridium difficile
Description: At t = 0, 3, 6 and 24 h, sample aliquots were withdrawn from the treated cultures and bacterial viability was scored by plating serial dilutions on BHIS agar plates. The agar plates were incubated in the anaerobic chamber for 20–24 h at 37 °C. Kinetic experiments were performed at least twice.

[17] = test system: B. breve Strain EX336960VC19; assay: MIC by broth microdilution; type: cell-based; conditions: Bifidobacterium breve
[18] = test system: B. longum subsp. longum Strain 44B; assay: MIC by broth microdilution; type: cell-based; conditions: Bifidobacterium longum
[19] = test system: C. clostridioforme ATCC 25537; assay: MIC by broth microdilution; type: cell-based, Clostridium clostridioforme; conditions: Clostridium, ATCC25537
C. sporogenes ATCC 15579 = assay: MIC by broth microdilution; type: cell-based; conditions: Clostridium sporogenes, ATCC15579, BHIS, anaerobic, duplicate
[20] = test system: L. johnsonii Strain 135-1-CHN; assay: MIC by broth microdilution; type: cell-based; conditions: Lactobacillus johnsonii, STRAIN1351CHN
L. plantarum ATCC 8014 = assay: MIC by broth microdilution; type: cell-based; conditions: Lactiplantibacillus plantarum
[21] = test system: L. reuteri Strain CF48-3A; assay: MIC by broth microdilution; type: cell-based, Lactobacillus reuteri; conditions: Limosilactobacillus reuteri
[22] = test system: B. fragilis Strain CL05T00C42; assay: MIC by broth microdilution; type: cell-based; conditions: Bacteroides fragilis
[23] = test system: B. thetaiotaomicron ATCC 29148; assay: microbe, parasite or virus in culture; type: cell-based; conditions: Bacteroides thetaiotaomicron, ATCC29148
P. distasonis ATCC 8503 = assay: MIC by broth microdilution; type: cell-based; conditions: Parabacteroides distasonis, ATCC8503
P. nigrescens ATCC 33563 = assay: MIC by broth microdilution; type: cell-based; conditions: Prevotella nigrescens, ATCC33563
B. subtilis ATCC 6051 = assay: MIC by broth microdilution; type: cell-based; conditions: Bacillus subtilis, ATCC6051
S. aureus RN4220 = assay: MIC by broth microdilution; type: cell-based; conditions: Staphylococcus aureus, CAMHB, aerobic, duplicate
S. epidermidis 1457 = assay: MIC by broth microdilution; type: cell-based; conditions: Staphylococcus epidermidis
A. baumannii M2 = assay: MIC by broth microdilution; type: cell-based; conditions: Acinetobacter baumannii
P. aeruginosa PAO1 = assay: MIC by broth microdilution; type: cell-based; conditions: Pseudomonas aeruginosa
[24] = BHIS broth, anaerobic, 20–24 h, n = 2
[25] = Clostridioides difficile, 4118, read-out: MBClog
[26] = Clostridioides difficile, 4118, read-out: MBCstat

## O=C(Nc1ccc(Oc2ccc(Cl)cc2)c(Cl)c1)c1cc(I)cc(I)c1O [Rafoxanide, rafoxanide]
16 C. difficile isolates
  MIC50: 0.06 µg/mL (≈ 0.0958 µM)
  MIC90: 0.13 µg/mL (≈ 0.208 µM)
16 C. difficile isolates; n = 2
  MIC Range: 0.03 to 0.13 µg/mL
[1]; [24]
  MIC C. difficile 4118: 0.13 µg/mL (≈ 0.208 µM)
[1]; ATCCBAA1870, read-out: MIC C. difficile 4118
  MIC: 0.13 µg/mL (≈ 0.208 µM)
[2]
  MIC: 0.13 µg/mL (≈ 0.208 µM)
[3]
  MIC: 0.06 µg/mL (≈ 0.0958 µM)
[4]
  MIC: 0.06 µg/mL (≈ 0.0958 µM)
[5]
  MIC: 0.06 µg/mL (≈ 0.0958 µM)
[6]
  MIC: 0.06 µg/mL (≈ 0.0958 µM)
[7]
  MIC: 0.13 µg/mL (≈ 0.208 µM)
[8]
  MIC: 0.06 µg/mL (≈ 0.0958 µM)
[9]
  MIC: 0.03 µg/mL (≈ 0.0479 µM)
[10]
  MIC: 0.13 µg/mL (≈ 0.208 µM)
[11]
  MIC: 0.06 to 0.13 µg/mL (≈ 0.0958 to 0.208 µM)
[12]
  MIC: 0.06 µg/mL (≈ 0.0958 µM)
[13]
  MIC: 0.13 µg/mL (≈ 0.208 µM)
[14]
  MIC: 0.06 µg/mL (≈ 0.0958 µM)
C. difficile strain 4118 [15]; [25]
  MBC: 0.5 µg/mL (≈ 0.799 µM)
C. difficile strain 4118 [15]; [26]
  MBC: 1 µg/mL (≈ 1.6 µM)
C. difficile strain 4118 [16]; 4 × MIC, 24 h, stationary-phase CD4118
  log decrease in the number of CFUs: 2.7 log
C. difficile strain 4118 [16]; 16× MIC (rafoxanide 2 μg/mL, closantel 4 μg/mL, compound 8 1 μg/mL), stationary-phase CD4118
  time to eradicate >99.9% of viable cells: 6 h
[17]
  MIC: 16 to 32 µg/mL (≈ 25.6 to 51.1 µM)
[18]
  MIC: 8 µg/mL (≈ 12.8 µM)
[19]
  MIC: 1 µg/mL (≈ 1.6 µM)
C. sporogenes ATCC 15579
  MIC: 1 µg/mL (≈ 1.6 µM)
[20]; 48 h
  MIC: 32 µg/mL (≈ 51.1 µM)
L. plantarum ATCC 8014; ATCC8014, 48 h
  MIC: 32 µg/mL (≈ 51.1 µM)
[21]; 48 h
  MIC: 16 µg/mL (≈ 25.6 µM)
[22]
  MIC: 32 µg/mL (≈ 51.1 µM)
[23]
  MIC: > 32 µg/mL
P. distasonis ATCC 8503
  MIC: 8 µg/mL (≈ 12.8 µM)
P. nigrescens ATCC 33563
  MIC: 8 µg/mL (≈ 12.8 µM)
B. subtilis ATCC 6051
  MIC: ≤ 0.03 µg/mL
S. aureus RN4220
  MIC: 0.25 µg/mL (≈ 0.399 µM)
S. epidermidis 1457; 1457
  MIC: ≤ 0.03 µg/mL
A. baumannii M2; M2
  MIC: > 32 µg/mL
P. aeruginosa PAO1; PAO1
  MIC: > 32 µg/mL

## CN[C@H](CC(C)C)C(=O)N[C@H]1C(=O)N[C@@H](CC(N)=O)C(=O)N[C@H]2C(=O)N[C@H]3C(=O)N[C@H](C(=O)N[C@H](C(=O)O)c4cc(O)cc(O)c4-c4cc3ccc4O)[C@H](O)c3ccc(c(Cl)c3)Oc3cc2cc(c3O[C@@H]2O[C@H](CO)[C@@H](O)[C@H](O)[C@H]2O[C@H]2C[C@](C)(N)[C@H](O)[C@H](C)O2)Oc2ccc(cc2Cl)[C@H]1O [Vancomycin, vancomycin hydrochloride hydrate]
16 C. difficile isolates; MIC at which 50% of the 16 isolates are inhibited, n = 2, read-out: MIC50
  MIC50: 1 µg/mL
16 C. difficile isolates; MIC at which 90% of the 16 isolates are inhibited, n = 2, read-out: MIC90
  MIC90: 2 µg/mL
16 C. difficile isolates; n = 2
  MIC Range: 0.5 to 2 µg/mL
[1]; [24]
  MIC C. difficile 4118: 2 µg/mL
[1]; ATCCBAA1870, BHIS broth, anaerobic, 20–24 h, n = 2, read-out: MIC C. difficile 4118
  MIC: 2 µg/mL
[2]; isolate 20110869, ribotype 001_072, duplicate, read-out: MIC
  MIC: 1 µg/mL
[3]; isolate 20110742, ribotype 002, duplicate, read-out: MIC
  MIC: 0.5 to 1 µg/mL
[4]; isolate 20100584, ribotype 014, duplicate, read-out: MIC
  MIC: 0.5 µg/mL
[5]; isolate 20110960, ribotype 017, duplicate, read-out: MIC
  MIC: 0.5 µg/mL
[6]; isolate 20110740, ribotype 018, duplicate, read-out: MIC
  MIC: 1 µg/mL
[7]; isolate 20120016, ribotype 019, duplicate, read-out: MIC
  MIC: 0.5 µg/mL
[8]; isolate 20111163, ribotype 024, duplicate, read-out: MIC
  MIC: 1 µg/mL
[9]; isolate 20121412, ribotype 047, duplicate, read-out: MIC
  MIC: 1 µg/mL
[10]; isolate 20100422, ribotype 054, duplicate, read-out: MIC
  MIC: 1 µg/mL
[11]; isolate 20110986, ribotype 078, duplicate, read-out: MIC
  MIC: 0.5 to 1 µg/mL
[12]; isolate 20110973, ribotype 106, duplicate, read-out: MIC
  MIC: 2 µg/mL
[13]; isolate 20121190, ribotype 126, duplicate, read-out: MIC
  MIC: 0.5 µg/mL
[14]; isolate 20110961, ribotype A12, duplicate, read-out: MIC
  MIC: 1 µg/mL
C. difficile strain 4118 [15]; [25]
  MBC: 8 µg/mL
C. difficile strain 4118 [15]; [26]
  MBC: > 32 µg/mL
C. difficile strain 4118 [15]; at 32 μg/mL, 20–24 h
  log reduction of CD4118 stationary-phase cells: < 3 log
C. difficile strain 4118 [16]; 16× MIC (metronidazole 4 μg/mL, vancomycin 32 μg/mL), up to 24 h
  log killing of CD4118 stationary-phase cells: < 3 log
[17]; B. breve EX336960VC19, LSM broth, anaerobic, duplicate, read-out: MIC
  MIC: 0.5 µg/mL
[18]; B. longum subsp. longum 44B, LSM broth, anaerobic, duplicate, read-out: MIC
  MIC: 0.25 µg/mL
[19]; C. clostridioforme ATCC 25537, BHIS, anaerobic, duplicate, read-out: MIC
  MIC: 0.5 µg/mL
C. sporogenes ATCC 15579
  MIC: 2 µg/mL
[20]; L. johnsonii 135-1-CHN, CAMHB with 5% laked horse blood, ~48 h, duplicate, read-out: MIC
  MIC: 0.5 µg/mL
L. plantarum ATCC 8014; ATCC8014, L. plantarum ATCC 8014, CAMHB with 5% laked horse blood, ~48 h, duplicate, read-out: MIC
  MIC: > 32 µg/mL
[21]; L. reuteri CF48-3A, CAMHB with 5% laked horse blood, ~48 h, duplicate, read-out: MIC
  MIC: > 32 µg/mL
[22]
  MIC: 32 µg/mL
[23]
  MIC: > 32 µg/mL
P. distasonis ATCC 8503
  MIC: > 32 µg/mL
P. nigrescens ATCC 33563
  MIC: > 32 µg/mL
B. subtilis ATCC 6051; B. subtilis ATCC 6051, CAMHB, aerobic, duplicate, read-out: MIC
  MIC: 0.13 µg/mL
S. aureus RN4220
  MIC: 1 µg/mL
S. epidermidis 1457; S. epidermidis 1457, CAMHB, aerobic, duplicate, read-out: MIC
  MIC: 2 µg/mL
A. baumannii M2; A. baumannii M2, CAMHB, aerobic, duplicate, read-out: MIC
  MIC: > 32 µg/mL
P. aeruginosa PAO1; P. aeruginosa PAO1, CAMHB, aerobic, duplicate, read-out: MIC
  MIC: > 32 µg/mL
